The source of these data is patent EP0349354A1, “Peptides PF10 to PF19 from a retro virus HIV, method for the synthesis of these peptides and their use, particularly in diagnostics” (INSTITUT PASTEUR, priority 1988, dated 1990).

In assay [1] the test system is anticorps anti-protéine F. The assay is described as follows: Western blot test on peptide spots with sera of HIV-1 infected patients. The class given is binding, humain. Also noted: key to réaction avec sérum CHA 1/300, 10µl / réaction avec sérum LOM 1/100, 10µl / réaction avec sérum LOM 1/100, 5µl / réaction avec sérum CHA 1/300, 5µl / réaction avec sérum CHA 1/300, 2µl / réaction avec sérum CHA 1/300, 1µl / réaction avec sérum 1545 1/200, 10µl: ++ signifiant une réaction plus marquée. As to the method: Pour les besoins du test, les différents peptides PF16, PF19, PF13, PF17 utilisés sont dilués à une concentration de 2 mg/ml.
Sur une bande de papier BIORAD pour transblot, on dépose différents spots : 1µl, 2µl, 5µl, 10µl.
Après séchage on pratique un test Western Blot classique en utilisant comme anticorps des sérums de patients infectés par le virus HIV-1, positifs pour la protéine F, à des dilutions variant de 1/100 à 1/300.
Les peptides testés permettent d'aboutir aux résultats résumés dans le tableau 2 avec trois sérums différents anti-F ++ (++ signifiant une réaction plus marquée).
For orientation: A western blot detects proteins with antibodies after separation by electrophoresis.

Another assay concerns anticorps anti-nef. The experiment in a line: ELISA for detection of anti-nef antibodies on coated peptides or nef. The class given is binding, humain. The procedure:
Des plaques de microtitration à 96 puits ont été recouvertes une nuit avec 500 ng de protéine nef bactérienne, à 37°C ou avec 500 ng de peptides synthétiques par puits dans 50µl de PBS à pH 7,4. Après saturation avec 400 µl de PBS pH 7,4, contenant 5% de caséine, durant 1 heure à 37°C et lavage avec PBS à pH 7,4, 0,5% de BSA, 0,01% tween, 50 µl de sérums à différentes dilutions ont été ajoutés pendant 2 heures à 37°C. Après le rinçage, 50µl de complexes d'IgG de souris anti-humaine-(H + L)-peroxydase 1:1000 ont été incubés pendant 1 heure à 37°C. Après un nouveau rinçage, 100µl de OPD ont été ajoutés pendant 30mn à température ambiante dans l'obscurité. La réaction de l'enzyme a été arrêtée par addition de 50µl d'acide sulfurique 4N et la densité optique des plaques a été lue à 492 nm/620 nm. Les plaques recouvertes avec la caséine ont été utilisées comme contrôle négatif.
En vue d'étudier la possibilité d'utiliser des peptides synthétiques en tant qu'antigènes pour la détection d'anticorps anti-nef chez des patients infectés par HIV, 8 peptides synthétiques couvrant la totalité de la séquence de la protéine nef de HIV-1 (figure 4) ont été utilisés dans un test ELISA avec 31 sérums anti-nef positifs et 2 sérums anti-nef négatifs utilisés comme contrôle. Les recombinants nef ont été utilisés comme contrôle positif dans les tests ELISA et la caséine a été utilisée comme contrôle négatif. Les résultats de ces expériences sont donnés dans le tableau 4 qui illustre l'essai suivant: Essai ELISA sur 31 sérums anti-nef-positifs et 2 sérums anti-nef- négatifs, soit pré-recouverts avec des peptides synthétiques (PF 11 à PF 18), soit en utilisant nef, la caséine ou un mélange de peptides PF 12 et PF 17. Les sérums ont été sélectionnés au hasard parmi des sérums anti-nef positifs et anti-nefs négatifs testés par la méthode RIA en utilisant ¹²⁵I nef. L'intensité de l'immunoradioactivité est notée "-" pour une densité optique (OD) inférieure à 0,2; "+" pour OD = 0,2 à 0,4; "++" pour OD = 0,4 à 0,8 et "+++" pour OD = 0,8 à 2,0.
On the technique in general: In an ELISA, binding on a coated surface is turned into a signal by an enzyme label.

For “XCRGGLEGMFYSERRHKILNIYLEKEEGIIADZ [PF19]”, in assay [1] (serum CHA diluted 1/300, spot 5µl of peptide at 2 mg/ml), the “réaction avec sérum CHA 1/300, 5µl” value is listed as “++”. For the same sequence, the “réaction avec sérum CHA 1/300, 10µl” value in assay [1] (serum CHA diluted 1/300, spot 10µl of peptide at 2 mg/ml) is “++”. The “réaction avec sérum LOM 1/100, 5µl” value in assay [1] (serum LOM diluted 1/100 (column outside the heading of positive sera), spot 5µl of peptide at 2 mg/ml) was “tr”. Also, the “réaction avec sérum LOM 1/100, 10µl” value in assay [1] (serum LOM diluted 1/100 (column outside the heading of positive sera), spot 10µl of peptide at 2 mg/ml) is recorded as “tr”. Also, the “réaction avec sérum P.6. 1/200, 5µl” value in assay [1] (serum P.6. diluted 1/200, spot 5µl of peptide at 2 mg/ml) was “tr”.
As to “XCKGGLEGLIHSQRRQDILDLWIYHTQGYFPDZ [PF18]”, in the assay on anticorps anti-nef (ELISA, 31 anti-nef positive sera), the “part des sérums anti-nef positifs avec immunoréactivité significative” value is 1/3. For the same sequence, the “nombre de sérums anti-nef positifs ayant réagi” value in the assay on anticorps anti-nef (ELISA, out of 31 anti-nef positive sera) worked out at 10. Further, the “intensité de l'immunoréactivité (OD), Serum 1” value in the assay with anticorps anti-nef (Serum 1, anti-nef positive, 500 ng coated per well) is on record as “- (pour une densité optique (OD) inférieure à 0,2)”. Also, in the assay on anticorps anti-nef (Serum 2, anti-nef positive, 500 ng coated per well), the “intensité de l'immunoréactivité (OD), Serum 2” value is “- (pour une densité optique (OD) inférieure à 0,2)”. Besides, the “intensité de l'immunoréactivité (OD), Serum 3” value with anticorps anti-nef (Serum 3, anti-nef positive, 500 ng coated per well) is “- (pour une densité optique (OD) inférieure à 0,2)”. Besides, the “intensité de l'immunoréactivité (OD), Serum 4” value in the assay with anticorps anti-nef (Serum 4, anti-nef positive, 500 ng coated per well) is listed as “- (pour une densité optique (OD) inférieure à 0,2)”. In the assay with anticorps anti-nef (Serum 5, anti-nef positive, 500 ng coated per well), the “intensité de l'immunoréactivité (OD), Serum 5” value was “+ (pour OD = 0,2 à 0,4)”. Besides, the “intensité de l'immunoréactivité (OD), Serum 6” value with anticorps anti-nef (Serum 6, anti-nef positive, 500 ng coated per well) is listed as “+ (pour OD = 0,2 à 0,4)”. Moreover, the “intensité de l'immunoréactivité (OD), Serum 7” value in the assay on anticorps anti-nef (Serum 7, anti-nef positive, 500 ng coated per well) is listed as “- (pour une densité optique (OD) inférieure à 0,2)”. The “intensité de l'immunoréactivité (OD), Serum 8” value in the assay with anticorps anti-nef (Serum 8, anti-nef positive, 500 ng coated per well) is on record as “- (pour une densité optique (OD) inférieure à 0,2)”. For the same sequence, the “intensité de l'immunoréactivité (OD), Serum 9” value in the assay on anticorps anti-nef (Serum 9, anti-nef positive, 500 ng coated per well) is listed as “- (pour une densité optique (OD) inférieure à 0,2)”. In addition, the “intensité de l'immunoréactivité (OD), Serum 10” value in the assay on anticorps anti-nef (Serum 10, anti-nef positive, 500 ng coated per well) is recorded as “- (pour une densité optique (OD) inférieure à 0,2)”. In addition, the “intensité de l'immunoréactivité (OD), Serum 11” value with anticorps anti-nef (Serum 11, anti-nef positive, 500 ng coated per well) is “- (pour une densité optique (OD) inférieure à 0,2)”. Moreover, the “intensité de l'immunoréactivité (OD), Serum 12” value in the assay with anticorps anti-nef (Serum 12, anti-nef positive, 500 ng coated per well) is “- (pour une densité optique (OD) inférieure à 0,2)”. Further, the “intensité de l'immunoréactivité (OD), Serum 13” value in the assay on anticorps anti-nef (Serum 13, anti-nef positive, 500 ng coated per well) is “- (pour une densité optique (OD) inférieure à 0,2)”. Also, the “intensité de l'immunoréactivité (OD), Serum 14” value with anticorps anti-nef (Serum 14, anti-nef positive, 500 ng coated per well) is listed as “- (pour une densité optique (OD) inférieure à 0,2)”. In addition, the “intensité de l'immunoréactivité (OD), Serum 15” value in the assay with anticorps anti-nef (Serum 15, anti-nef positive, 500 ng coated per well) is listed as “- (pour une densité optique (OD) inférieure à 0,2)”. Further, the “intensité de l'immunoréactivité (OD), Serum 16” value with anticorps anti-nef (Serum 16, anti-nef positive, 500 ng coated per well) is “- (pour une densité optique (OD) inférieure à 0,2)”. Further, the “intensité de l'immunoréactivité (OD), Serum 17” value in the assay on anticorps anti-nef (Serum 17, anti-nef positive, 500 ng coated per well) is given as “- (pour une densité optique (OD) inférieure à 0,2)”. Moreover, the “intensité de l'immunoréactivité (OD), Serum 18” value in the assay on anticorps anti-nef (Serum 18, anti-nef positive, 500 ng coated per well) is on record as “++ (pour OD = 0,4 à 0,8)”. Further, the “intensité de l'immunoréactivité (OD), Serum 19” value in the assay with anticorps anti-nef (Serum 19, anti-nef positive, 500 ng coated per well) was “+ (pour OD = 0,2 à 0,4)”. The “intensité de l'immunoréactivité (OD), Serum 20” value in the assay with anticorps anti-nef (Serum 20, anti-nef positive, 500 ng coated per well) is given as “+ (pour OD = 0,2 à 0,4)”. The “intensité de l'immunoréactivité (OD), Serum 21” value with anticorps anti-nef (Serum 21, anti-nef positive, 500 ng coated per well) is on record as “+++ (pour OD = 0,8 à 2,0)”. For the same sequence, the “intensité de l'immunoréactivité (OD), Serum 22” value in the assay with anticorps anti-nef (Serum 22, anti-nef positive, 500 ng coated per well) is given as “+++ (pour OD = 0,8 à 2,0)”. Further, the “intensité de l'immunoréactivité (OD), Serum 23” value in the assay with anticorps anti-nef (Serum 23, anti-nef positive, 500 ng coated per well) is recorded as “- (pour une densité optique (OD) inférieure à 0,2)”. Further, the “intensité de l'immunoréactivité (OD), Serum 24” value with anticorps anti-nef (Serum 24, anti-nef positive, 500 ng coated per well) is listed as “++ (pour OD = 0,4 à 0,8)”. For the same sequence, the “intensité de l'immunoréactivité (OD), Serum 25” value in the assay on anticorps anti-nef (Serum 25, anti-nef positive, 500 ng coated per well) is listed as “+ (pour OD = 0,2 à 0,4)”. Also, the “intensité de l'immunoréactivité (OD), Serum 26” value with anticorps anti-nef (Serum 26, anti-nef positive, 500 ng coated per well) was “- (pour une densité optique (OD) inférieure à 0,2)”. Further, the “intensité de l'immunoréactivité (OD), Serum 27” value in the assay on anticorps anti-nef (Serum 27, anti-nef positive, 500 ng coated per well) was “- (pour une densité optique (OD) inférieure à 0,2)”. The “intensité de l'immunoréactivité (OD), Serum 28” value in the assay on anticorps anti-nef (Serum 28, anti-nef positive, 500 ng coated per well) was “- (pour une densité optique (OD) inférieure à 0,2)”. Further, in the assay on anticorps anti-nef (Serum 29, anti-nef positive, 500 ng coated per well), the “intensité de l'immunoréactivité (OD), Serum 29” value is reported as “- (pour une densité optique (OD) inférieure à 0,2)”. Further, the “intensité de l'immunoréactivité (OD), Serum 30” value with anticorps anti-nef (Serum 30, anti-nef positive, 500 ng coated per well) is on record as “+++ (pour OD = 0,8 à 2,0)”. In the assay on anticorps anti-nef (Serum 31, anti-nef positive, 500 ng coated per well), the “intensité de l'immunoréactivité (OD), Serum 31” value was “- (pour une densité optique (OD) inférieure à 0,2)”. The “intensité de l'immunoréactivité (OD), Serum 32” value in the assay with anticorps anti-nef (Serum 32, anti-nef negative control serum, 500 ng coated per well) is “- (pour une densité optique (OD) inférieure à 0,2)”. The “intensité de l'immunoréactivité (OD), Serum 33” value in the assay on anticorps anti-nef (Serum 33, anti-nef negative control serum, 500 ng coated per well) was “- (pour une densité optique (OD) inférieure à 0,2)”.
